Results as given in patent US10105344B2, “Methods of reducing blood lactate concentration” (Stokely-Van Camp, Inc., priority 2010, dated 2018).

Assays:
C2C12 cells = experiment: Muscle cell assay: lactate concentration in C2C12 cells after electrical pulse stimulation; format: cell-based, Mouse
Experimental: Mouse C2C12 myoblasts are purchased from American Type Culture Collection (ATCC; Manassas, Va.) and grown to 90% confluence in high glucose Dubecco's Modified Eagle media (DMEM) with 10% fetal bovine serum (FBS). Myoblasts from the purchased lot are grown in T75 flasks and subcultured >5 times prior to plating in collagen coated six-well plates for experimentation. To induce myotube differentiation FBS containing media is replaced with 2% horse serum containing media or serum free media for 5-7 days. Myoblasts are grown and myotubes are maintained with or without antibiotics in a 37° C., 5% CO2 incubator. Electrical pulsing is applied to the myotubes using a C-Pace EP Cell Culture Stimulator (IonOptix; Milton, Mass.). […] Immediately prior to stimulation, day old media is removed and replaced with 5 ml of fresh differentiation media. For incubation experiments, differentiated myotubes are pre-treated with quercetin and/or other compounds. Approximately 18 hours prior and again immediately before electrical pulse stimulation, DMEM containing 2% horse serum or serum free media is replaced with the same media containing quercetin or other test compounds at varying concentrations. Samples from media from resting and contracted cells (with and without compound incubation) is analyzed enzymatically for lactate with a modified method of Lowry and Passonneau (A Flexible System of Enzymatic Analysis, pages 194-199, Academic Press, INC. 1972 hereby incorporated by reference in its entirety.) The effect of quercetin on lactate concentration of muscle cells subjected to electrical pulse stimulation as generally described in Example 1 and Example 2 was studied. […] Media was changed every 24 hours. After 48 hours, growth media was replaced with AIM 5 differentiation media which was also changed every 24 hours. […] Lactate concentrations were measured with the Enzychrom L-Lactate Kit as follows. […] The optical density (OD0) was read for time “zero” at 565 nm and OD20 after a […] incubation at room temperature.

trained cyclists = experiment: Onset of blood lactate accumulation (OBLA) test, incremental cycling exercise; format: in vivo
Experimental: Two tests were performed to determine whether quercetin lowers blood lactate or improves maximal lactate steady state: a VO2PEAK test and an onset of blood lactate accumulation [OBLA] test. These tests were performed in a laboratory maintained at 20-25° C. and 35-40% relative humidity with the participants exercising on a Velotron bicycle trainer (Velotron Pro, RacerMate Inc, Seattle, Wash.) calibrated according to manufacturer's recommendations. VO2PEAK was determined using an incremental multistage cycling protocol: following a 10-min warm-up at 100 W, participants cycled at 150 W for five minutes then power output was increased by 50 W every three minutes until 250 W after which power output was increased by 25 W every minute until volitional exhaustion. Oxygen consumption (VO2) and carbon dioxide production (VCO2) were computed from expiratory gases collected and analyzed with a MOXUS metabolic cart (AEI Technologies, Pittsburgh, Pa.). OBLA was determined on a second occasion, separated from the measurement of VO2PEAK by at least seven days. The participants exercised for 3.5 minute stages at 55, 60, 65, 70, 75, 80, 85, and 90% VO2PEAK, and 3-mL blood samples were collected during the final 30 sec of each stage for measuring blood lactate concentration, OBLA was determined using curve fitting techniques and expressed as a percentage of VO2PEAK. OBLA was determined before and after 28 days of quercetin supplementation (1000 mg/d) contained in a 2% carbohydrate beverage with electrolytes and vitamins C and B3.

`O=c1c(O)c(-c2ccc(O)c(O)c2)oc2cc(O)cc(O)c12` [quercetin] was tested, and the “day 5 lactate concentration post stimulus” value (C2C12 cells; plate C (primed days 3 and 4, quercetin days 3, 4, 5) vs plate A without quercetin, 60 minutes low intensity stimulation (10V/0.5 hz/24 ms), FIG. 5) was “lower day 5 lactate concentration post stimulus”, the “day 5 lactate concentration post stimulus” value (C2C12 cells; plate D (primed days 3 and 4, quercetin days 3, 4, 5) vs plate B without quercetin, 60 minutes high intensity stimulation (10V/4 hz/2 ms), FIG. 6) was “lower day 5 lactate concentration post stimulus” and the “day 5 lactate concentration post stimulus” value (C2C12 cells; plate E (no priming, quercetin day 5 only) vs plate F without quercetin, 60 minutes high intensity stimulation (10V/4 hz/2 ms), FIG. 7) was “lower day 5 lactate concentration post stimulus”. For the same compound, the “improvement of the % VO2 Peak where the cyclist achieved a blood lactate concentration of 4 mmol” value (trained cyclists; after quercetin administration vs before, FIG. 1) was “about 3%”, the “% VO2 Peak to achieve a 4 mmol blood lactate concentration” value (trained cyclists; after quercetin administration, about 71% before, FIG. 1) was “about 73%” and the “cycling power output required to elicit a 4 mmol blood lactate” value (trained cyclists; endurance cyclists, after 28 days of quercetin administration (1000 mg/d), 244 W before) was 250 W. The “increase in cycling power output required to elicit a 4 mmol blood lactate” value (trained cyclists; endurance cyclists, before vs after 28 days of quercetin administration (1000 mg/d), FIG. 1) was 6 watts (W).
